Source: PMC7385626 (Scientific Reports, 2020)

Key:
S. aureus ATCC29213 = experiment: Disc diffusion assay; assay type: cell-based, Staphylococcus aureus
Experimental: (§1) Therefore, the pathogen bacterial flora and the opportunistic agents may be taken into consideration both in the management of cancer patients and in individual susceptibility to cancer. Indeed, dual acting factors with antimicrobial and antiproliferative potentials can result in improved therapeutic efficacy for cancer cell patients or reduced cancer predisposition. […]. In this study, 10 microbial cultures of this part, belonging to ten types of bacterial were used. The culture was grown in Mueller–Hinton Broth (Merck) for all the bacterial strains at 36 °C. Antimicrobial test was carried out by using disc-diffusion assay utilizing 100 µL of suspension with 10^8 CFU/mL of bacteria and 10^6 CFU/mL of yeast spread on Nutrient Agar and Potato Dextrose Agar, respectively. Also, the blank disc (Oxoid = 6 mm in diameter) was impregnated with 20 µL of each substance (105 µg/disc) and placed on the inoculated agar. Negative controls ([…]) were prepared using the same solvent (water) employed to dissolve each substance. […]. The inoculated plate was incubated at 36 °C for clinical bacterial strains. Antimicrobial activities were evaluated by obtaining the zone of inhibitory effect against the test organisms.

HT29 = experiment: BrdU Cell Proliferation Assay (BCPA); assay type: cell-based, human
Source text: (§2) The antiproliferative activities of Ag(I) molecules and the starting molecules of the parent molecules, N-bishydeten and [Ag(CN)2]^− compound, on cells, were monitored utilizing by the BrdU Cell Proliferation Assay (BCPA) (Fig. 6).
(§3) The antiproliferative activity of the 2, 3, 4, [Ag(CN)2]^− and 5FU against various cell lines (HeLa ATCC CCL-2, C6 cells ATCC CCL-107, HT29 ATCC HTB-38, and Vero ATCC CCL-81) were preserved and maintained in Dulbecco’s modified eagle’s medium, supplemented with %2 antibiotic (Streptomycin-Penicillin) solution and 10% fetal bovine serum.
(§4) The cell suspension including 5×10^3 cells in 100 µL was supplied into the well cell plates (96-well cell). The therapies of these cells with 2, 3, 4 and [Ag(CN)2]^− in DMSO (max 0.1% DMSO) and 5-Florouracil (5 FU) molecule in DMSO (max 0.1% DMSO) separately at concentration 0.25, 0.50, 1.00, 1.50, 2.00, 2.50, 3.75, and 5.00 µg/mL were carried out. The last volume was adapted to 200 µL by mixture and DMEM and also incubated for 24 h at 37°C with 5% CO2. The antiproliferative activities of the 2, 3, 4 and [Ag(CN)2]^− were determined with using BrdU Cell proliferation ELISA Kit conforming to manufacturer’s assay.
(§5) IC50 values the concentration of a factor which required for other method of in vitro.

[1] = test system: HeLa, HT29, C6 and Vero cells; experiment: BrdU Cell Proliferation Assay, range over the cell lines; assay type: cell-based
Source text: as §2, §3, §4, §5

HT29 cells = experiment: TUNEL assay; assay type: cell-based, human
Experimental: […]. We have evaluated the apoptotic effect of the molecules on HT29 cells utilizing the TUNEL method as an immunohistological study to reveal their mechanism of action on cells. The apoptotic activity of the Ag(I) compounds was examined in human colon cancer cells, HT29. […]. […] […].
Figure 8 Phase-contrast and Fluorescence and image of the HT29 cancer cell line examined by TUNEL assay. […].
In situ finding of apoptosis was conducted utilizing a TUNEL method kit conforming to the manufacturer’s mechanism. HT29 cells (30.000 cells/chamber slide section) were conveyed in poly-L-lysine covered chamber slide. […]. Finally, slide was gently washed with cold DPBS and added 4 % paraformaldehyde for fixation for 60 min at room temperature. Following incubation, the cells were blocked with freshly prepared 3 % H2O2 in methanol at room temperature. Then, the cells were exposed to permeabilized solution (0.1 % sodium citrate and 0.1 % Triton X-100) for 2 minutes on ice. At this stage in order to prepare a DNase I enzyme treated as positive control, 10 μl of DNase-I and 90 μl its buffer was added to slide and incubated at room temperature for 10 minutes. The compotent cell was transferred into TUNEL reaction mixture (50 μL/section) involving a TdT and fluorescein-dUTP mix for 1 h at 37 °C, in a humidified phase and protected from light. In the end of the process, the positive cell nuclei obtained a green fluorescent signal which visualized by a Leica fluorescent microscope.

C6 = experiment: BrdU Cell Proliferation Assay (BCPA); assay type: cell-based
Source text: as §2, §3, §4, §5

HeLa = experiment: BrdU Cell Proliferation Assay (BCPA); assay type: cell-based
Source text: as §2, §3, §4, §5

Vero = experiment: BrdU Cell Proliferation Assay (BCPA); assay type: cell-based
Source text: as §2, §3, §4, §5

KpnI and BamHI = experiment: Inhibition of restriction endonucleases activity (pTOLT plasmid digestion); assay type: biochemical
Experimental: Fig. S12. […] Following 4 h 37°C digestion of the 14µL with 10U KpnI and BamHI, these digestion products were resolved with 1.5% agarose gel containing ethidium bromide. Lane 1: enzyme + DNA + complex 4, Lane 2: enzyme + DNA + complex 3, Lane 3: enzyme + DNA + complex 2, Lane 4: Positive control (enzyme + DNA), Lane 5: Negative control (plasmid DNA + water); lane 6: DNA marker (1Kb).

B. cereus DSM 4312 = experiment: Disc diffusion assay; assay type: cell-based, Bacillus Cereus
Experimental: as §1

[2] = test system: bacterial strains (four gram-positive, five gram-negative); experiment: Disc diffusion assay, range over the bacterial strains; assay type: cell-based
Experimental: as §1, with “[…]. […] Four types of gram-positive bacterial strains (St. pyogenez, B. subtilis, B. cereus, S. aureus) and five types of” for “Therefore,”, “gram-negative (S. enteridis, E. aerogenes, P. aeruginosa, E. coli,” for “pathogen bacterial flora”, “S. gallinarum) were sensitive to 4” for “the opportunistic agents may be taken into consideration both in the management of cancer patients”, “1.” for “in individual susceptibility to cancer. Indeed, dual acting factors with antimicrobial and antiproliferative potentials can result in improved therapeutic efficacy for cancer cell patients or reduced cancer predisposition.”

In the case of [Cu(N-bishydeten)Ag3(CN)5] [Complex 2], the “inhibition zones, S. aureus ATCC29213” value (S. aureus ATCC29213) is reported as 37 ± 1.0 mm, the IC50 (HT29) is reported as 870 ± 90 nM and the IC50 [1] is reported as 870 to 3640 nM. For the same substance, the “apoptosis by TUNEL” value (HT29 cells) was “significantly triggered apoptosis”, the IC50 (C6) was 950 ± 90 nM and the IC50 (HeLa) was 3640 ± 420 nM. The IC50 (Vero) was 2810 ± 320 nM, the “effect on restriction endonucleases activity (KpnI and BamHI digestion of pTOLT plasmid DNA)” value (shortened to “effect”) (KpnI and BamHI) was “caused the formation of two DNA bands (Lane 3) corresponding to the supercoiled and nicked DNA” and the “inhibition zones, B. cereus DSM 4312” value (B. cereus DSM 4312) was 30 ± 0.58 mm.

In the case of [Zn(N-bishydeten)Ag3(CN)5] [Complex 3], the “inhibition zones, S. aureus ATCC29213” value (S. aureus ATCC29213) is reported as 25 ± 0.58 mm, the IC50 (HT29) is reported as 2370 ± 320 nM and the IC50 [1] is reported as 2370 to 3340 nM. The “apoptosis by TUNEL” value (HT29 cells) was “significantly triggered apoptosis”, the IC50 (C6) was 3340 ± 340 nM and the IC50 (HeLa) was 3190 ± 370 nM. The IC50 (Vero) was 3060 ± 350 nM, the “effect” value (KpnI and BamHI) was “failed to inhibit the restriction endonucleases activity” and the “inhibition zones, B. cereus DSM 4312” value (B. cereus DSM 4312) was 34 ± 0.0 mm.

In the case of “[Cd(N-bishydeten)]4[Ag(CN)2]8[Ag(CN)]2 [Complex 4]”, the “inhibition zones, S. aureus ATCC29213” value (S. aureus ATCC29213) is reported as 30 ± 1.0 mm, the IC50 (HT29) is reported as 480 ± 80 nM and the IC50 [1] is reported as 480 to 630 nM. For the same substance, the “apoptosis by TUNEL” value (HT29 cells) was “significantly triggered apoptosis”, the IC50 (C6) was 600 ± 90 nM and the IC50 (HeLa) was 610 ± 90 nM. The IC50 (Vero) was 630 ± 90 nM, the “effect” value (KpnI and BamHI) was “failed to inhibit the restriction endonucleases activity” and the “inhibition zones, B. cereus DSM 4312” value (B. cereus DSM 4312) was 36 ± 1.0 mm. For the same substance, the “inhibition zones, range over the bacterial strains” value [2] was 25–37 mm.
